The record followed here is patent publication US12690589B2, “Herbicidal compositions comprising pyroxasulfone” (BASF SE, priority 2024, dated 2026).

The structures appear in SMILES notation.

Holding throughout (test): Post-emergence application in field trials, herbicidal activity (damage scale 0 to 100%)
Common to all, as to format: in vivo

Experiment [1] has as its system Spermacoce latifolia (BOILF). To be noted: 21 DAT, Table 2.5. The method, then: (§1) In the examples below, using the method of S. R. Colby (1967) “Calculating synergistic and antagonistic responses of herbicide combinations”, Weeds 15, p. 22ff., the value E, which is expected if the activity of the individual active compounds is only additive, was calculated:
(§2) [formula] • wherein • X=percent activity using active herbicide A at an application rate a; • Y=percent activity using active herbicide B (e.g. pyroxasulfone) at an application rate b; • E=expected activity (in %) by A+B at application rates a+b.
(§3) If the value found experimentally is higher than the value E calculated according to Colby, a synergistic effect is present.
(§4) On field test sites, natural weed infestation or seeded weeds were treated post-emergence of the weeds.
(§5) In the field trials, the weeds were treated as indicated below.
(§6) In the following experiments, the herbicidal activity for the individual herbicidal compositions (solo and mixture applications) was assessed at the indicated days after treatment (DAT). The assessments for the damage on undesired weeds caused by the composition was carried out using a scale from 0 to 100%, compared to the untreated control plants. Here, 0 means no damage and 100 means complete destruction of the plants.
(§7) Herbicide A-1 (50 g/l) and pyroxasulfone (85% WG) were, together with addition of 0.5% MSO (methylated seed oil) as adjuvant, formulated in water as distribution medium (water volume 200 l/ha) and sprayed with commercial flat fan nozzles.

The test system of experiment [2] is Euphorbia heterophylla (EPHHL). To be noted: 21 DAT. As for the experimental part: as §1, §2, §3, §4, §5, §6, §7
Experiment [3] concerns Eleusine indica (ELEIN). The method, then:
as §1, §2, §3, §4, §5, §6, §7

The test system of experiment [4] is Amaranthus viridis (AMAVI). To be noted: growth stage 16-18, height 10-15 cm, 20 DAT, Table 2.1. As for the experimental part:
as §1, §2, §3, §4, §5, §6, §7

Experiment [5] has as its system Bidens pilosa (BIDPI). As for the experimental part:
as §1, §2, §3, §4, §5, §6, §7

For experiment [6], the system named is Galinsoga parviflora (GASPA). Particulars: height 15-35 cm, 21 DAT, Table 2.4. As for the experimental part: as §1, §2, §3, §4, §5, §6, §7
Experiment [7] concerns Brachiaria plantaginea (BRAPL). Particulars: growth stage 21-25, height 10-15 cm, 20 DAT, Table 2.1. As for the experimental part: as §1, §2, §3, §4, §5, §6, §7

For the compound `CCOC(=O)COc1ccccc1Oc1nc(-n2c(=O)cc(C(F)(F)F)n(C)c2=O)c(F)cc1Cl` [A-1, ethyl 2-[2-[[3-chloro-5-fluoro-6-[3-methyl-2,6-dioxo-4-(trifluoromethyl)pyrimidin-1-yl]-2-pyridyl]oxy]phenoxy]acetate], the “% Herbicidal activity” value in experiment [1] (A-1 25 g ai/ha) was found to be 94%; in experiment [1] (A-1 50 g ai/ha), 97%; in experiment [2] (growth stage 12-16, height 5-15 cm, A-1 25 g ai/ha, Table 2.6), 97%; in experiment [2] (growth stage 12-16, height 5-15 cm, A-1 50 g ai/ha, Table 2.6), 98%; in experiment [2] (height 15-35 cm, A-1 50 g ai/ha, Table 2.4), 95%; in experiment [2] (height 20-25 cm, A-1 25 g ai/ha, Table 2.2), 86%. Further, the “% Herbicidal activity” value in experiment [3] (growth stage 21-25, height 5-10 cm, A-1 25 g ai/ha, 20 DAT, Table 2.1) came out at 53%; in experiment [3] (growth stage 21-25, height 5-10 cm, A-1 50 g ai/ha, 20 DAT, Table 2.1), 59%; in experiment [3] (growth stage 23-25, height 3-5 cm, A-1 25 g ai/ha, 21 DAT, Table 2.6), 94%; in experiment [3] (growth stage 23-25, height 3-5 cm, A-1 50 g ai/ha, 21 DAT, Table 2.6), 95%; in experiment [3] (height 20-25 cm, A-1 25 g ai/ha, 21 DAT, Table 2.3) it was 52%; in experiment [4] (A-1 25 g ai/ha) it was 71%. Moreover, the “% Herbicidal activity” value in experiment [4] (A-1 50 g ai/ha) is 83%; in experiment [5] (growth stage 12-16, height 5-10 cm, A-1 25 g ai/ha, 21 DAT, Table 2.6), 94%; in experiment [5] (growth stage 23-25, height 10-20 cm, A-1 25 g ai/ha, 20 DAT, Table 2.1), 71%; in experiment [5] (growth stage 23-25, height 10-20 cm, A-1 50 g ai/ha, 20 DAT, Table 2.1), 77%; in experiment [5] (height 20-45 cm, A-1 50 g ai/ha, 21 DAT, Table 2.4) it was 92%; in experiment [6] (A-1 25 g ai/ha) it was 82%. In addition, the “% Herbicidal activity” value is recorded as 94% in experiment [6] (A-1 50 g ai/ha) and 49% in experiment [7] (A-1 25 g ai/ha).

For `Cn1nc(C(F)(F)F)c(CS(=O)(=O)C2=NOC(C)(C)C2)c1OC(F)F` [B, pyroxasulfone], the “% Herbicidal activity” value was determined as 5% in experiment [1] (B 120 g ai/ha); 5% in experiment [2] (growth stage 12-16, height 5-15 cm, B 120 g ai/ha, Table 2.6); 0% in experiment [2] (height 15-35 cm, B 120 g ai/ha, Table 2.4); 0% in experiment [2] (height 20-25 cm, B 120 g ai/ha, Table 2.2); 0% in experiment [3] (growth stage 21-25, height 5-10 cm, B 120 g ai/ha, 20 DAT, Table 2.1); 5% in experiment [3] (growth stage 23-25, height 3-5 cm, B 120 g ai/ha, 21 DAT, Table 2.6). Also, the “% Herbicidal activity” value in experiment [3] (height 20-25 cm, B 120 g ai/ha, 21 DAT, Table 2.3) is recorded as 0%; in experiment [4] (B 120 g ai/ha) it was 0%; in experiment [5] (growth stage 12-16, height 5-10 cm, B 120 g ai/ha, 21 DAT, Table 2.6) it was 5%; in experiment [5] (growth stage 23-25, height 10-20 cm, B 120 g ai/ha, 20 DAT, Table 2.1), 0%; in experiment [5] (height 20-45 cm, B 120 g ai/ha, 21 DAT, Table 2.4), 0%; in experiment [6] (B 120 g ai/ha), 0%. For the same compound, the “% Herbicidal activity” value in experiment [7] (B 120 g ai/ha) was found to be 0%.
